From US20050171119A1, “Pharmaceutical formulations with modified release” (UCB, S.A., priority 2002, published 2005)

Columns and labels:
[1] = Administration of 2 times 15 mg of efletirizine in solution with a 12-hour interval; format: in vivo, healthy volunteers; conditions: human, plasma, oral, 2 times 15 mg in solution; for Cmax / Tmax: 15 mg
Procedure: Two times 15 mg of efletirizine in solution were administered to 12 healthy volunteers, with a 12-hour interval.

[2] = Administration of 60 mg IR efletirizine gelatin capsule: influence of a meal; format: in vivo, patients; conditions: for AUC / Cmax / Tmax: human, in vivo, oral, 60 mg, 60 mg gelatin capsule
Procedure: A gelatin capsule containing 60 mg of efletirizine was administered to 20 fasting patients and to 22 patients who had eaten a standardized fatty meal beforehand.

[3] = Crossover trial: 10 mg IR solution plus 25 mg PR tablet J, fasting or after a meal, vs 15 mg IR solution twice; format: in vivo, human volunteers; conditions: human, plasma, oral, IR solution 15 mg × 2, 12-hour interval; for Cmax / Tmax: 15 mg
Procedure: In a crossover trial, 12 volunteers received 3 types of treatments: • 10 mg of IR efletirizine in the form of a solution and one PR tablet of 25 mg of efletirizine (J) while fasting; • 10 mg of IR efletirizine in the form of a solution and one PR tablet of 25 mg of efletirizine (J) after a standardized fatty meal; • 15 mg of IR efletirizine in the form of a solution, taken twice with a 12-hour interval
The first 3 components are granulated. The last 3 are then added and the mixture is compressed. The tablet J is a repeat of the composition of the tablet F, to which a granulating agent, Povidone K30™, has been added.

histamine H1 receptor = histamine H1 receptor (Homo sapiens, UniProt P35367); conditions: background statement; cited from earlier work
histamine H1 receptor, sequence (P35367 whole entry, species assumed): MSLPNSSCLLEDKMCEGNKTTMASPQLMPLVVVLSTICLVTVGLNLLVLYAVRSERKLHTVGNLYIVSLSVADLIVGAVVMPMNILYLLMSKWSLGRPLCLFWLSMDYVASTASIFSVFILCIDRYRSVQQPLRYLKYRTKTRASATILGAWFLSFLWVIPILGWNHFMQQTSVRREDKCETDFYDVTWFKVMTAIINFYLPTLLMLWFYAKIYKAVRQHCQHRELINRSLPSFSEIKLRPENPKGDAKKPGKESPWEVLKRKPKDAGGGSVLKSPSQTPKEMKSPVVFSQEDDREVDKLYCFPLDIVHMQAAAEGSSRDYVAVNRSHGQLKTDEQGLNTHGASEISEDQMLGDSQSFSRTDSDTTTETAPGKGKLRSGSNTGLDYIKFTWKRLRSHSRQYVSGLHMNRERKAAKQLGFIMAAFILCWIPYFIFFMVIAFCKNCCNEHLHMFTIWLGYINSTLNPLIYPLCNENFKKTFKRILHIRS

[4] = second dose, read-out: Cmax (2)
[5] = second dose, read-out: tmax (2)
[6] = 60 mg IR gelatin capsule, after a meal vs fasting
[7] = after a standardized fatty meal

Cmax ([1]; first dose, read-out: Cmax(1)): 307 ng/mL
Tmax ([1]; first dose, read-out: tmax (1)): 0.6 h
Cmax [1, 4]: 305 ng/mL
Tmax [1, 5]: 12.6 h
AUC [1]: 2800 ng·h/mL
decrease of Cmax by having a meal [2, 6]: 42%
influence of a meal on bioavailability [2, 6]: decreased
AUC [2, 7]: 5780 ng·h/mL
Cmax [2, 7]: 855 ng/mL
Tmax [2, 7]: 3.03 h
AUC ([2]; fasting): 6350 ng·h/mL
Cmax ([2]; fasting): 1470 ng/mL
Tmax ([2]; fasting): 0.77 h
Cmax ([3]; first dose, read-out: Cmax (1)): 307 ng/mL
Tmax ([3]; first dose, read-out: tmax (1)): 0.6 h
Cmax [3, 4]: 305 ng/mL
Tmax [3, 5]: 12.6 h
AUC [3]: 2800 ng·h/mL
SMILES: O=C(O)COCCN1CCN(C(c2ccc(F)cc2)c2ccc(F)cc2)CC1 [efletirizine, 2-[2-[4-[Bis(4-fluorophenyl)methyl]-1-piperazinyl]-ethoxy]acetic acid]
affinity in vitro for H1 receptors (histamine H1 receptor): great affinity
selectivity in vitro for H1 receptors (histamine H1 receptor): great selectivity
